# Test results: patent publication EP1670820B1, “ANTIGENS FOR AN EAST COAST FEVER VACCINE” (International Livestock Research Institute ( ILRI), priority 2003, dated 2005)
# System: peptide pulsed autologous iSF
# Assay: 51Chromium release assay: CTL lysis of peptide pulsed autologous iSF
# Format: cell-based, cattle
# Details: autologous iSF pulsed overnight with peptide; BW014 polyclonal CD8+ CTL line (FIG. 9)
sequence,measurement,value
SLVCVLMKC [Tp2 peptide 76B],lysis of iSF pulsed with peptide,background levels of lysis
